Consider one molecule from article PMC8080595, “Discovery of a novel RORγ antagonist with skin-restricted exposure for topical treatment of mild to moderate psoriasis” (Scientific Reports, 2021).

The nature of one data set: in vivo. As to conditions: female, C57BL/6, mouse. As to the method: The dermal PK studies of Compound 1 in Vaseline were performed in dorsal skin of female C57BL/6 and male BALB/c mice via topical route. The skin (1.5 cm × 2 cm) was shaved one day prior to the dosing. At tissue collecting time point, the skin surface was decontaminated (twice with hand soap, twice with water, alternatively, and dried with tissue swabs). Stratum corneum is removed with tape strips for five times. The tissues were homogenized for PK analyses of Compound 1 by LC/MS.

The target in another data set is T1, RORα (Homo sapiens, UniProt P35398).
T1 sequence (P35398 272-523 limits assumed): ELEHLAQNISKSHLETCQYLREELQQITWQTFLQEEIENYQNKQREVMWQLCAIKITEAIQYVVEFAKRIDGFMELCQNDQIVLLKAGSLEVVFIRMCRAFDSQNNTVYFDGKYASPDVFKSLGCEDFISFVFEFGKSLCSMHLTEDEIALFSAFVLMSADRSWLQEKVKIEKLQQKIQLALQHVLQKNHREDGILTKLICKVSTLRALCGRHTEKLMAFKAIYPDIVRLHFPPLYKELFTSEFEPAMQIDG
Briefly: RORα luciferase reporter assay. As to conditions: up to 10,000 nM, n = 3. Format: cell-based. As to the method:
We next assessed the selectivity of SHR168442 against another ROR family member, RORα, using nuclear reporter assay. […] ATRA (all trans-retinoic acid) was used as a positive control in the assay.
Cell-based luciferase reporter assays for RORα and RORγ (Indigo Biosciences) were performed according to the manufacturer’s protocol.
For orientation: In a reporter assay the amount or activity of a reporter protein is the signal.

Data set [1] is described as follows: Liver microsomal stability, human. Format: in vitro ADME. Particulars: human, liver microsomes, pH 7.4; 1 µM compound, 0.5 mg/ml microsome, NADPH, 37 °C; read-out: Liver microsomal stability, t1/2, Human. As to the method:
(§1) The compound was mixed with 0.5 mg/ml human liver microsome (Thermal Fisher) at a final concentration of 1 µM in 100 mM potassium phosphate buffer, pH 7.4. The reactions were initiated by the addition of 1 mM NADPH. Samples in duplicate were incubated at 37 °C with mixing. 100 µL aliquots were transferred after 0, 5, 10, 30, 45, 60 minutes to a new tube with 300 µL acetonitrile, incubated on ice for 30 minutes, centrifuged at 1800×g at 4 °C for 10 minutes. The supernatants were transferred to glass vials subjected to LC/MS analysis. Peak areas were measured to calculate half-life according to the formula t1/2 = − 0.693/slope of linear regression analysis of ln [concentration] versus incubation time. Similar methods were applied to access mouse and rat liver microsomal stability of the compounds.
In general terms: Liver microsomes are a subcellular fraction often used to study metabolism.

Data set [2] in a line: Liver microsomal stability, rat. Type of data set: in vitro ADME. Particulars: liver microsomes, pH 7.4, read-out: Liver microsomal stability, t1/2, Rat. As to the method: as §1

In turn, `CCS(=O)(=O)c1ccc([C@H](CCO)c2nc3c(Cl)c(N4CCC(F)(F)CC4)c(Cl)cc3[nH]2)cc1` [SHR168442, (S)-3-(4,6-dichloro-5-(4,4-difluoropiperidin-1-yl)-1H-benzo[d]imidazol-2-yl)-3-(4-(ethylsulfonyl)phenyl)propan-1-ol] displayed an Exposure in plasma in “in vivo” (3 h) of 7.0 ng/mL. The Exposure in skin in the data set “in vivo” (6 h) is listed as 18,500 ng/g. The concentration at 3 h in the data set “in vivo” (Exposure in plasma) is 8.8 ng/mL. This molecule displayed a concentration at 6 h in the data set “in vivo” (Exposure in skin) of 9710 ng/g. For the same molecule, the “effect on RORα reporter activity” value on RORα is listed as “little effect”. Besides, the half-life at 1 µM worked out at 2.3 min in data set [1] and 8.6 min in data set [2].
